The source of these data is patent US20130011538A1, “CRYSTAL OF MULTIVALENT METAL SALT OF MONATIN” (Ajinomoto Co., Inc., priority 2011, published 2013).

The nature of series [1]: Sweetness intensity evaluated by panelists in comparison with an aqueous solution of 5% sucrose. The settings on record: in comparison with the sweetness intensity of an aqueous solution of 5% sucrose; average of 7 panelists. Here is the method: <Moisture content> 10.8 wt % (corresponding to the following equation: monatin:water=2:4) <Magnesium content> 3.6 wt % (corresponding to the following equation: monatin:magnesium=2:1)< <Characteristic X-ray diffraction peaks (2θ±0.2°, CuKα)> 8.9°, 11.2°, 15.0°, 17.8°, and 22.5° (FIG. 3)< <Crystalline form> The crystalline form in the deposited ML was a relatively small flake-like form (FIG. 4)< <Sweetness intensity> 2700 times higher (in comparison with the sweetness intensity of an aqueous solution of 5% sucrose, average of the sweetness intensities evaluated by 7 panelists)

The nature of series [2]: Transmittance of monatin solution after storage (products containing glucose). It counts as physicochemical. The conditions noted are these: storage at 44° C. and 78%. Here is the method: (§1) <Name of device> UV-visible spectrophotometer, Cary 50, manufactured by Varian Medical Systems, Inc. <Measurement wavelength>430 nm
(§2) <Sample> 1 g of sweetener composition is totally dissolved in 50 mL of water.
1 g of each sweetener composition shown in the compositional table 1 was filled in a paper packaging material, and the packaging material was sealed with a heat seal. The composition was stored for a given period of time in a constant temperature and constant humidity device at 44° C. and 78%. Then, the total amount of the stored sample was dissolved in 50 mL of water, and the residual ratio of each monatin salt was calculated from the data obtained by HPLC analysis of the solution.

A short description of series [3]: Transmittance of monatin solution after storage (products containing sucrose). The class given is physicochemical. The conditions noted are these: storage at 44° C. and 78%. Here is the method:
as §1, §2
1 g of each sweetener composition shown in the compositional table 2 was filled in a paper packaging material, and the packaging material was sealed with a heat seal. The composition was stored for a given period of time in a constant temperature and constant humidity device at 44° C. and 78%. Then, the total amount of the stored sample was dissolved in 50 mL of water, and the residual ratio of each monatin salt was calculated from the data obtained by HPLC analysis of the solution.

Structures can show the parent of a compound that is named as a salt.

As to `NC(CC(O)(Cc1c[nH]c2ccccc12)C(=O)[O-])C(=O)O.NC(CC(O)(Cc1c[nH]c2ccccc12)C(=O)[O-])C(=O)O.O.O.O.O.[Mg+2]` [Example 2, ((2R,4R)-monatin)2 magnesium salt tetrahydrate], in series [1], the Sweetness intensity is given as 2700 times.

Turning to `NC(CC(O)(Cc1c[nH]c2ccccc12)C(=O)O)C(=O)O` [potassium salt, (2R,4R)-monatin monopotassium salt], the “Change in color after storage” value in series [2] and in series [3] was “colored yellow” each time. For the same molecule, the “Transmittance of the solution after storage (in words)” value in series [2] and in series [3] was “decreased” throughout.
